Values after ≈ are worked out from the molar mass of the structure shown.
How the values were obtained:
[1] = test system: SVMP activity of Bitis arietans venom; details: read-out: Inhibition of SVMP enzymatic activity EC50 BAR; B. arietans venom; mean of n ≥ 3, range in brackets
Description: (§1) Throughout our medicinal chemistry campaign, compounds were evaluated for their ability to inhibit enzymatic SVMP toxin activity in vitro using a previously described fluorescent-based substrate cleavage assay against five medically important viper venoms, namely Echis romani (Roman’s carpet viper, West Africa), Crotalus atrox (Western diamondback rattlesnake, North America), Calloselasma rhodostoma (Malayan pit viper, South East Asia), Bothrops jararaca (jararaca, South America) and Bitis arietans (puff adder, Africa).
(§2) Compounds of interest were stamped onto 384-well plates at a volume of 0.91 μL at a concentration of 1 mM in 100% DMSO (D2650, Sigma-Aldrich). Positive and negative control wells were stamped with 0.91 μL of 100% DMSO. To the test wells and the venom-only positive control wells, 15 μL of venom diluted to 0.066 μg/mL in PBS was added, giving a final amount of 1 μg/well. In the no venom negative control wells, 15 μL of PBS was added. The plates were then sealed, span briefly in a Platefuge (C2000, Benchmark Scientific) and incubated at 37 °C for 25 min to allow venom-inhibitor interaction. […] Dose response plates were conducted identically and the % inhibition values at each dose were used to draw EC50 curves to estimate the EC50 value of each compound tested. All SVMP experiments were repeated independently a minimum of three times.

[2] = physchem; details: organic solvent / aqueous solvent at pH 7.4, pH 7.4
Description: (§3) The DMPK properties data described in the manuscript were measured via a high-throughput platform by AstraZeneca (United Kingdom).

[3] = test system: human plasma protein
Description: as §3

[4] = in vitro; details: rat, hepatocytes
Description: as §3

[5] = test system: SVMP activity of Bothrops jararaca venom; details: read-out: Inhibition of SVMP enzymatic activity EC50 BJA; B. jararaca venom; mean of n ≥ 3, range in brackets
Description: as §1, §2

[6] = test system: SVMP activity of Calloselasma rhodostoma venom; details: read-out: Inhibition of SVMP enzymatic activity EC50 CRH; C. rhodostoma venom; mean of n ≥ 3, range in brackets
Description: as §1, §2

[7] = test system: SVMP activity of Echis romani venom; details: read-out: Inhibition of SVMP enzymatic activity EC50 ERO; E. romani venom; mean of n ≥ 3, range in brackets
Description: as §1, §2

[8] = test system: procoagulant activity of B. jararaca venom; details: read-out: Coagulation assay EC50 B. jararaca; 100 ng B. jararaca venom, citrated bovine plasma; mean of n ≥ 3, range in brackets
Description: (§4) This assay consists of preincubating venom (or venom vehicle control) at a species-specific dose with the compound of interest (or compound vehicle control), then adding citrated bovine plasma to the wells and activating the clotting cascade with calcium chloride. […] Compounds of interest were stamped onto 384-well plates at a volume of 0.5 μL and a concentration of 10 mM in 100% DMSO. Positive and negative control wells were stamped with 0.5 μL of 100% DMSO. To the test wells and the venom-only positive control wells, 10 μL of venom diluted to 1 μg/mL (E. romani) or 10 μg/mL (B. jararaca) in PBS was added, giving a final well amount of 10 ng (E. romani) or 100 ng (B. jararaca) per well. In the no venom negative control wells, 10 μL of PBS was added. The plates were then sealed, span briefly in a Platefuge and incubated at 37 °C for 25 min to allow venom-inhibitor interaction. While the plates were incubating, sufficient citrated bovine plasma (S0260, BioWest) to allow 20 μL/well was centrifuged at 3120 RCF for 5 min to remove any residual cellular debris and the supernatant was collected. The 384-well plates were removed from the incubator for 5 min to allow acclimation to room temperature, then 20 μL/well of 20 mM CaCl2 was added and immediately followed by the addition of 20 μL/well of centrifuged citrated bovine plasma, both via a Multidrop Combi reagent dispenser (5840330, Thermo Fisher Scientific). The plates were then read kinetically using an absorbance protocol on a CLARIOStar microplate reader at 595 nm for 60 min. […] Dose response plates were conducted identically and the % inhibition values at each dose were used to draw EC50 curves to estimate the EC50 value of each compound tested. All coagulation experiments were repeated independently a minimum of three times.

[9] = physchem; details: aqueous medium at pH 7.4, pH 7.4, aqueous buffer
Description: as §3

[10] = test system: procoagulant activity of E. romani venom; details: read-out: Coagulation assay EC50 E. romani; 10 ng E. romani venom, citrated bovine plasma; mean of n ≥ 3, range in brackets
Description: as §4

[11] = test system: SVMP activity of Crotalus atrox venom; details: read-out: Inhibition of SVMP enzymatic activity EC50 CAT; C. atrox venom; mean of n ≥ 3, range in brackets
Description: as §1, §2

[12] = in vitro; details: human, microsomes
Description: as §3

[13] = test system: procoagulant venom activity (E. romani and B. jararaca); details: in words; coagulation assay
Description: as §4

Structure (SMILES) | EC50 [1] [nM] | logD [2] | Human Protein binding (%free) [3] [%free] | hepatocyte CLint [4] [µL/min/1e6 cells] | EC50 [5] [nM] | EC50 [6] [nM] | EC50 [7] [nM] | EC50 [8] [nM] | solubility [9] [µM] | EC50 [10] [nM] | EC50 [11] [nM] | microsomal CLint [12] [µL/min/mg] | inhibition of procoagulant venom activity [13]
COc1ccc(S(=O)(=O)N2CCN(S(C)(=O)=O)C[C@@H]2C(=O)NO)cc1 [compound 19, (R)-N-Hydroxy-1-((4-methoxyphenyl)sulfonyl)-4-(methylsulfonyl)piperazine-2-carboxamide] | 14.3 | -0.3 | 88 | 8.9 | 20 | 62.9 | 10.9 | 509 | < 1000 | 496 | 45.3 | < 3 | –
COCCN1CCN(S(=O)(=O)c2ccc(OC)cc2)[C@@H](C(=O)NO)C1 [compound 20, (R)-N-Hydroxy-4-(2-methoxyethyl)-1-((4-methoxyphenyl)sulfonyl)piperazine-2-carboxamide] | 11.1 | 0.1 | 82 | 57.1 | 86.2 | 137 | 61.9 | > 10000 | > 1000 | > 10000 | 68.9 | < 3 | inactive
COc1ccc(S(=O)(=O)N2CCN(S(=O)(=O)c3ccc(OC)cc3)[C@@H](C(=O)NO)C2)cc1 [compound 21, (R)-N-Hydroxy-1,4-bis((4-methoxyphenyl)sulfonyl)piperazine-2-carboxamide] | 10.6 | 1 | 30 | 199 | 18.2 | 58.8 | 15 | 3920 | 25 (≈ 12.1 µg/mL) | 4590 | 32.5 | 10.2 | –
COc1ccc(S(=O)(=O)N2CCN(S(=O)(=O)c3c(C)noc3C)C[C@@H]2C(=O)NO)cc1 [compound 22, (R)-4-((3,5-Dimethylisoxazol-4-yl)sulfonyl)-N-hydroxy-1-((4-methoxyphenyl)sulfonyl)piperazine-2-carboxamide] | 9.8 | 0.7 | 51 | 44 | 17.8 | 53.3 | 10.7 | 1090 | > 1000 | 4850 | 35 | 17.5 | –
COCCN1CCN(S(=O)(=O)c2ccc(Oc3ccc(C(F)(F)F)cc3)cc2)[C@@H](C(=O)NO)C1 [compound 28, (R)-N-Hydroxy-4-(2-methoxyethyl)-1-((4-(4-(trifluoromethyl)phenoxy)phenyl)sulfonyl)piperazine-2-carboxamide] | 39.5 | 2.7 | 3.4 | 22.8 | 1510 | 95.9 | 7.6 | – | 320 (≈ 161 µg/mL) | – | 68.8 | 8.6 | –
COCCN1CCN(S(=O)(=O)c2ccc(-c3ccc(Cl)cc3)cc2)[C@@H](C(=O)NO)C1 [compound 29, (R)-1-((4′-Chloro-[1,1′-biphenyl]-4-yl)sulfonyl)-N-hydroxy-4-(2-methoxyethyl)piperazine-2-carboxamide] | 3.5 | 2.5 | 5.2 | 21.1 | 38.9 | 220 | 16.1 | > 10000 | 310 (≈ 141 µg/mL) | > 10000 | 52.7 | 5.1 | inactive
COCCN1CCN(S(=O)(=O)c2ccc(-c3ccc(F)cc3)cc2)[C@@H](C(=O)NO)C1 [compound 30, (R)-1-((4′-Fluoro-[1,1′-biphenyl]-4-yl)sulfonyl)-N-hydroxy-4-(2-methoxyethyl)piperazine-2-carboxamide] | 1.8 | 1.9 | 14.0 | > 300 | 27.1 | 125 | 18.5 | > 10000 | 468 (≈ 205 µg/mL) | > 10000 | 18.6 | 7.1 | inactive

— publication PMC13126677 (Journal of Medicinal Chemistry, 2026)
